Reference: publication PMC7037732, “Synthesis of Combretastatin A-4 and 3′-Aminocombretastatin A-4 derivatives with Aminoacid Containing Pendants and Study of their Interaction with Tubulin and as Downregulators of the VEGF, hTERT and c-Myc Gene Expression” (Molecules, 2020)

How the values were obtained:
[1] = test system: MCF-7 (breast adenocarcinoma); experiment: Inhibition of cell proliferation (MTT), MCF-7; type: cell-based, human; settings: Table 2, 48 h of treatment (footnote), average ±SD of three experiments
Source text: (§1) The ability of the synthetic compounds to inhibit cell proliferation was established by means of their IC50 values towards the tumor cell lines HT-29 (human colon adenocarcinoma), MCF-7 (breast adenocarcinoma) and A-549 (human pulmonary adenocarcinoma), as well as towards the nontumor cell line HEK-293 (human embryonic kidney cells). Results for compounds derived from CA-4 are presented in Table 1, along with the calculated selectivity indexes SIA (for HT-29 cell line), SIB (for MCF-7 cell line) and SIc (for A-549 cell line), obtained by dividing the IC50 values of the nontumor cell line (HEK-293) by those of the corresponding tumor cell line. The higher the SI index, the higher the therapeutic safety margin.
(§2) Cell culture media were purchased from Gibco (Grand Island, NY, USA). Fetal bovine serum (FBS) was a product of Harlan-Seralab (Belton, U.K.). Supplements and other chemicals not listed in this section were obtained from Sigma Chemical Co. (St. Louis, MO, USA). Plastics for cell culture were supplied by Thermo Fischer Scientific Inc., Madrid, Spain. All tested compounds were dissolved in DMSO at a concentration of 10 μg/mL and stored at −20 °C until use. HT-29, MCF-7, A-549 and HEK-293 cell lines were maintained in a Dulbecco’s modified Eagle’s medium (DMEM) containing glucose (1 g/L), glutamine (2 mM), penicillin (50 IU/mL), streptomycin (50 μg/mL) and amphotericin B (1.25 μg/mL), supplemented with 10% FBS. Cells from human non-small lung carcinoma (clone A549; ATCC n°: CCL2, MD, USA) were routinely grown at 37 °C in a humidified atmosphere of 5% CO2. Cells were maintained in a standard medium composed of RPMI 1640 (Lonza, Group Ltd., Basel, Switzerland), supplemented with 10% fetal bovine serum (FBS), 2 mM L-glutamine and 1% penicillin and streptomycin (Invitrogen). Cells were free from mycoplasma as determined by MycoAlert tests (Lonza, Group Ltd., Basel, Switzerland).
(§3) A total of 5 × 10^3 HT-29, MCF-7 or HEK-293 cells in a total volume of 100 μL of their respective growth media were incubated with serial dilutions of the tested compounds. The 3-(4,5-dimethylthiazol-2-yl)-2,5-diphenyltetrazolium bromide (MTT; Sigma Chemical Co.) dye reduction assay in a 96-well microplate was used, as previously described. […] The resulting formazan was dissolved in 150 μL of 0.04 N HCl/2-propanol and read at 550 nm. All determinations were carried out in triplicate.

[2] = test system: A-549 (human pulmonary adenocarcinoma); experiment: Inhibition of cell proliferation (MTT), A-549; type: cell-based; settings: Homo sapiens, A549, 48 h, Table 2; 48 h of treatment (footnote); average ±SD of three experiments
Source text: as §1
as §2, with “Switzerland). […]” for “Switzerland).”

[3] = test system: HEK-293 (human embryonic kidney cells); experiment: Inhibition of cell proliferation (MTT), nontumor HEK-293; type: cell-based; settings: Table 2, 48 h of treatment (footnote), average ±SD of three experiments
Source text: as §1, §2, §3

[4] = test system: hTERT gene; experiment: hTERT gene expression by RT-qPCR in HT-29 cells; type: cell-based, human; settings: Homo sapiens, HT-29, 48 h, control 100; for mrna remaining at 0.015 µM: 15 nM
Procedure: (§4) The effect on the expression of VEGF, hTERT and c-Myc genes has been studied for CA-4 and its derivatives that show selectivity indexes higher than 0.9 on the HT-29 cell line. The studied derivatives, together with the concentrations to which they have been tested, are CA-4 (15 μM); 4.1 (Gly, 5 μM); 4.5 (L-Pro, 25 μM); 4.9 (L-Met, 25 μM); 6.2 (D-Leu, 25 μM); 6.3 (D-Phe, 25 μM); 6.4 (D-Pro, 25 μM) and 6.5 (D-Ser, 10 μM). The expression of the genes was determined by RT-qPCR methodology, as described in the Materials and Methods section.
(§5) As regards AmCA-4 derivatives, the effect on the expression of the VEGF, hTERT and c-Myc genes has been studied on those that show IC50 in the low nanomolar range on the HT-29 cell line and/or on compounds whose selectivity indexes with respect to this cell line are higher than 1. The studied compounds, together with the concentrations to which they have been tested, are: CA-4 (15 μM), AmCA-4 (15 nM), 7.1 (7 nM), 7.2 (1.5 nM), 7.3 (4 nM), 7.4 (15 nM), 7.5 (2 nM), 7.7 (7 nM), 7.8 (15 nM), 7.9 (30 nM), 8.1 (7 nM), 8.2 (3 nM), 8.3 (10 nM), 8.4 (1.5 nM), 8.5 (4 nM), 8.7 (7 nM), 8.8 (3 nM) and 8.9 (4 nM).
(§6) HT-29 cells at 70–80% confluence were collected, and 1.5 × 10^5 cells were placed in a six-well plate in 1.5 mL of the medium. After 24 h, cells were incubated with the corresponding compounds for 48 h. Cells were collected, and the total cellular RNA from the HT-29 cells was isolated using an Ambion RNA Extraction Kit, according to the manufacturer’s instructions. The cDNA was synthesized by MMLV-RT with […] of extracted RNA and oligo(dT)15, according to the manufacturer’s instructions. Genes were amplified by a thermal cycler and StepOnePlus™ TaqMan® probes. TaqMan® Gene Expression Master Mix Fast, containing the appropriate buffer for the amplification conditions, dNTPs, thermostable DNA polymerase enzyme and a passive reference probe, was used. To amplify each of the genes, the predesigned primers sold by Life Technologies TaqMan® Gene Expression Assays Hs99999903-m1 (β-actin), Hs00900055-m1 (VEGF), Hs00972646-m1 (hTERT) and Hs00153408-m1 (c-Myc) were used.

[5] = test system: HT-29 (human colon adenocarcinoma); experiment: Inhibition of cell proliferation (MTT), HT-29; type: cell-based; settings: Homo sapiens, HT-29, 48 h, Table 2; 48 h of treatment (footnote); average ±SD of three experiments
Source text: as §1, §2, §3

[6] = test system: c-Myc gene; experiment: c-Myc gene expression by RT-qPCR in HT-29 cells; type: cell-based, human; settings: Homo sapiens, HT-29, 48 h, control 100; for mrna remaining at 0.015 µM: 15 nM
Procedure: as §4, §5, §6

[7] = test system: purified tubulin; experiment: Critical concentration (CrC) for the assembly of purified tubulin in GAB; type: biochemical; settings: compound 27.5 μM, tubulin 25 μM, glycerol (GAB) and GTP assembly buffer; control 7.9 ± 1.2
Procedure: The effect on the self-assembly of tubulin was determined by measuring the critical concentration (CrC).

[8] = test system: VEGF gene; experiment: VEGF gene expression by RT-qPCR in HT-29 cells; type: cell-based, human; settings: Homo sapiens, HT-29, 48 h, control 100; for mrna remaining at 0.015 µM: 15 nM
Procedure: as §4, §5, §6

[9] = test system: tubulin; experiment: In vitro tubulin polymerization by turbidimetry (It50); type: biochemical; settings: turbidimetry at 350 nm, 37 °C; for It50 (time required to reach 50% of the polymerization): control 16.6 ± 1.0
Procedure: Figure 3 also includes polymerization curves in the presence of CA-4, AmCA-4 and paclitaxel. This test was also performed using paclitaxel, a microtubule stabilizing agent, as a control for the complete formation of microtubules (see Figure 3).

[10] = test system: A-549 cells; experiment: Cell cycle distribution by flow cytometry; type: cell-based, human; settings: A-549, 24 h, 0.5 µM
Procedure: The effects of some CA-4 derivatives on the cell cycle were evaluated in A-549 cells.
The effects of some AmCA-4 derivatives on the cell cycle were also evaluated in A-549 cells.
The supernatant and trypsinated cells were harvested and then centrifuged (1200 rpm, 5 min, 4 °C). The cell pellet was resuspended in 1 mL of cold 70% ethanol for 30 min at −20 °C. Cells were centrifuged (2000 rpm, 5 min, 4 °C) to remove ethanol, and then the cell pellet was resuspended in the staining mix containing 50 µg/mL propidium iodide (Molecular Probes, France) and 100 µg/mL RNAse A (Sigma, France) in PBS for 20 min at room temperature in darkness. Samples were analyzed on a Becton Dickinson FACScan flow cytometer using the CellQuest software, which was also used to determine the percentage of cells in the G2/M phases of the cell cycle. PI was excited at 488 nm, and fluorescence analyzed at 620 nm on channel Fl-2.

SMILES | IC50 ([1]; Homo sapiens, MCF7, 48 h) [µM] | IC50 [2] [µM] | IC50 ([3]; Homo sapiens, HEK293, 48 h) [µM] | IC50 [5] [µM] | CrC (critical concentration) [7] [µM] | It50 (time required to reach 50% of the polymerization) [9] [min] | also measured
COc1ccc(/C=C\c2cc(OC)c(OC)c(OC)c2)cc1NC(=O)[C@@H](NC(=O)OCC1c2ccccc2-c2ccccc21)C(C)C [Compound 7.3] | 0.1 ± 0.05 | 0.87 ± 0.06 | 0.06 ± 0.02 | 0.13 ± 0.04 | 6.9 ± 0.3 | – | mrna remaining at 0.004 µM ([4]; 4 nM): > 100%; mrna remaining at 0.004 µM ([6]; 4 nM): 63%; mrna remaining at 0.004 µM ([8]; 4 nM): 23%
COc1ccc(/C=C\c2cc(OC)c(OC)c(OC)c2)cc1NC(=O)[C@H](CC(C)C)NC(=O)OCC1c2ccccc2-c2ccccc21 [Compound 7.4] | 0.009 ± 0.002 | 0.49 ± 0.013 | 0.014 ± 0.003 | 0.023 ± 0.01 | 9.9 ± 0.8 | – | mrna remaining at 0.015 µM [4]: 96%; mrna remaining at 0.015 µM [6]: 94%; mrna remaining at 0.015 µM [8]: 58%
COc1ccc(/C=C\c2cc(OC)c(OC)c(OC)c2)cc1NC(=O)[C@@H](NC(=O)OCC1c2ccccc2-c2ccccc21)C(C)O (some centres unmarked) [Compound 7.7] | 0.025 ± 0.012 | 0.422 ± 0.008 | 0.013 ± 0.002 | 0.009 ± 0.003 | 12.0 ± 0.3 | 19.2 ± 0.3 | mrna remaining at 0.007 µM ([4]; 7 nM): < 70%; mrna remaining at 0.007 µM ([6]; 7 nM): 56%; mrna remaining at 0.007 µM ([8]; 7 nM): 37%
COc1ccc(/C=C\c2cc(OC)c(OC)c(OC)c2)cc1NC(=O)[C@H](Cc1ccc(O)cc1)NC(=O)OCC1c2ccccc2-c2ccccc21 [Compound 7.8] | 0.012 ± 0.002 | 8.9 ± 1.2 | 0.016 ± 0.002 | 0.018 ± 0.005 | 10.1 ± 1.1 | – | mrna remaining at 0.015 µM [4]: 76%; mrna remaining at 0.015 µM [6]: > 100%; mrna remaining at 0.015 µM [8]: 51%
COc1ccc(/C=C\c2cc(OC)c(OC)c(OC)c2)cc1NC(=O)[C@@H](N)CC(C)C [Compound 8.4] | – | 0.167 ± 0.023 | – | – | 8.3 ± 0.3 | – | mrna remaining at 0.0015 µM ([4]; 1.5 nM): 73%; mrna remaining at 0.0015 µM ([6]; 1.5 nM): 48%; G0/G1 [10]: 35 ± 1%; G2/M [10]: 48 ± 1%; S [10]: 17 ± 2%; mrna remaining at 0.0015 µM ([8]; 1.5 nM): 67%
COc1ccc(/C=C\c2cc(OC)c(OC)c(OC)c2)cc1NC(=O)[C@@H](N)Cc1ccc(O)cc1 [Compound 8.8] | < 0.005 | 0.206 ± 0.02 | < 0.005 | – | 7.7 ± 0.8 | – | IC50 [1]: 0.0049 ± 0.0002 µM; IC50 [3]: 0.0027 ± 0.0014 µM; mrna remaining at 0.003 µM ([4]; 3 nM): 46%; mrna remaining at 0.003 µM ([6]; 3 nM): 42%; G0/G1 [10]: 30 ± 2%; G2/M [10]: 52 ± 3%; S [10]: 18 ± 1%; mrna remaining at 0.003 µM ([8]; 3 nM): 72%
COc1ccc(/C=C\c2cc(OC)c(OC)c(OC)c2)cc1NC(=O)[C@H]1CCCN1C(=O)OCC1c2ccccc2-c2ccccc21 [Compound 9.4] | 5.3 ± 1.1 | 12.8 ± 0.8 | 3.1 ± 1.1 | 5.3 ± 0.3 | 11.4 ± 0.2 | 16.5 ± 0.3 | –
CC(=O)O[C@H]1C(=O)[C@@]2(C)[C@H]([C@H](OC(=O)c3ccccc3)[C@]3(O)C[C@H](OC(=O)[C@H](O)[C@@H](NC(=O)c4ccccc4)c4ccccc4)C(C)=C1C3(C)C)[C@]1(OC(C)=O)CO[C@@H]1C[C@@H]2O [Paclitaxel, paclitaxel, reference compound] | – | – | – | – | – | 3.2 ± 0.4 | time to reach the plateau phase of polymerization [9]: 30 min; Effect on in vitro tubulin polymerization ([9]; result in words): promotes tubulin polymerization
